The target in one test is T1, human GcgR (Homo sapiens, UniProt P47871).
T1 construct: expressed in transfected cells; crude membranes
As to the kind of experiment: [125I]-Glucagon binding, SPA with WGA beads, 0.1% bacitracin. Particulars: geometric mean, read-out: hGcgR Ki. A digest of the protocol: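 SPA competition binding with WGA beads on crude membranes from HEK293 cells stably expressing hGcgR. Buffer: 25 mM HEPES pH 7.4, 2.5 mM CaCl2, 1 mM MgCl2, 0.1% bacitracin, 0.003% Tween-20; 10-point 3-fold dilutions, NSB with 1 μM Gcg.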

Another test concerns the target T2, human GLP-1R (Homo sapiens, UniProt P43220).
T2 construct: expressed in transfected cells; crude membranes
As to the kind of experiment: [125I]-GLP-1 binding, SPA with WGA beads, 0.1% bacitracin. To be noted: geometric mean, read-out: hGLP1R Ki. In outline:
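Binding buffer was 25 mM HEPES pH 7.4 with 2.5 mM CaCl2, 1 mM MgCl2, 0.1% (w/v) bacitracin, 0.003% Tween-20 and EDTA-free protease inhibitors. Four-parameter regression gave IC50, converted to Ki (geometric mean, SEM, n independent days).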

Another test concerns the target T3, human GIPR (Homo sapiens, UniProt P48546).
T3 construct: expressed in transfected cells; crude membranes
T3 sequence (P48546 22-466): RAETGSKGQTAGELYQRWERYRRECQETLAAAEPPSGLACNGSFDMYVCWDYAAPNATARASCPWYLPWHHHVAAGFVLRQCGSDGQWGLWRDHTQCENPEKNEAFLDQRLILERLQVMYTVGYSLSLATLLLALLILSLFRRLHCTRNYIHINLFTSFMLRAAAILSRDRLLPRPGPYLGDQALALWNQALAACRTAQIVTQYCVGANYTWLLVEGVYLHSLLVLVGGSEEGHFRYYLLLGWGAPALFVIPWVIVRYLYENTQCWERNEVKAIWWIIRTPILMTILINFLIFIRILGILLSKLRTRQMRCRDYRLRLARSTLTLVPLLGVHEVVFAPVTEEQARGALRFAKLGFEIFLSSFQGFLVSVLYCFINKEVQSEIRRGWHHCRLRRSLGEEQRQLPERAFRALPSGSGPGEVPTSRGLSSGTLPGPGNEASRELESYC
The test can be described thus: [125I]-GIP binding, SPA with WGA beads, 0.1% bacitracin. Particulars: geometric mean, read-out: hGIPR Ki. In outline:
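Ki values are geometric means (SEM, n independent days), derived from four-parameter nonlinear regression of IC50. Membranes came from hGIPR-expressing CHO cells.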

*1 amine or outer side, *2 acyl side, *3 side chain or, on linkers, in order; H or OH if unused. Where a SMILES comes first, the peptide text is derived from it. Side-chain parts run from the residue outwards. [ ]: non-standard residue; d: D form. The star is where a group is joined. C20 diacid = O=C(O)CCCCCCCCCCCCCCCCCCC(=O)*; αMePhe(2-F) = C[C@](N)(Cc1ccccc1F)C(=O)O; γGlu = O=C(O)[C@H](CCC(=O)[*:2])N[*:1]; 4Pal = N[C@@H](Cc1ccncc1)C(=O)O; αMeL = CC(C)C[C@](C)(N)C(=O)O; Orn = NCCC[C@H](N)C(=O)O; AEEA = NCCOCCOCC(=O)O; Aib = CC(C)(N)C(=O)O

The Ki is the dissociation constant of the complex between target and ligand, obtained from inhibition or displacement.

T1 sequence (P47871 26-477): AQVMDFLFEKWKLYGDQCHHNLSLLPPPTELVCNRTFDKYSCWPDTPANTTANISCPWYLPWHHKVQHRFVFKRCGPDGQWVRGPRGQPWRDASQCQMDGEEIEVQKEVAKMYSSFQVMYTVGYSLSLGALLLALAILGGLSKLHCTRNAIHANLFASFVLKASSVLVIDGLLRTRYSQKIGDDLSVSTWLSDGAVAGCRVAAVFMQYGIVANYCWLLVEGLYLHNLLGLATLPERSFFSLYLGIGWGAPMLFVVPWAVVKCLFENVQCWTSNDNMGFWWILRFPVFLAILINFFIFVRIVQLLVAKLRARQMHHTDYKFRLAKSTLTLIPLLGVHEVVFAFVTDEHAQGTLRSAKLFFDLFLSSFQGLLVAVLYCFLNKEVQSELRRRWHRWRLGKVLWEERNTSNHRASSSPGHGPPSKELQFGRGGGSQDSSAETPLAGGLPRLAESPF
T2 sequence (P43220 24-463): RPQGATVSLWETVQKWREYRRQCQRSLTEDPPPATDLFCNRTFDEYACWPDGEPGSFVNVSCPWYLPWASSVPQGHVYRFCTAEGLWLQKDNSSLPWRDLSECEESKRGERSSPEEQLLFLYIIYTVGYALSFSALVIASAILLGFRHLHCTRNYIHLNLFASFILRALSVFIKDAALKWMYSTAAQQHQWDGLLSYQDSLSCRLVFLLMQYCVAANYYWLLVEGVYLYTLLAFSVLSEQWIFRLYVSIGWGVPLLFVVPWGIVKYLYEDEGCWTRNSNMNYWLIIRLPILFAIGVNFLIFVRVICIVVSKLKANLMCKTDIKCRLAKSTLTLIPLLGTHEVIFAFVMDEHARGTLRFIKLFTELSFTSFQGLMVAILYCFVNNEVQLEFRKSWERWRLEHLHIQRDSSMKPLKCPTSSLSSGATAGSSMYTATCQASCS

Consider `CC[C@H](C)[C@H](NC(=O)[C@H](CO)NC(=O)[C@H](Cc1ccc(O)cc1)NC(=O)[C@H](CC(=O)O)NC(=O)[C@H](CO)NC(=O)[C@@H](NC(=O)[C@](C)(Cc1ccccc1F)NC(=O)[C@@H](NC(=O)CNC(=O)[C@H](CCC(=O)O)NC(=O)C(C)(C)NC(=O)[C@@H](N)Cc1ccc(O)cc1)[C@@H](C)O)[C@@H](C)CC)C(=O)N[C@@H](CC(C)C)C(=O)N[C@@H](CC(C)C)C(=O)N[C@@H](CC(=O)O)C(=O)N[C@@H](CCCCN)C(=O)N[C@H](C(=O)N[C@@H](Cc1c[nH]cn1)C(=O)N[C@@H](CCC(N)=O)C(=O)NC(C)(C)C(=O)N[C@@H](CC(=O)O)C(=O)N[C@@H](Cc1ccccc1)C(=O)N[C@H](C(=O)N[C@@H](CCC(=O)O)C(=O)N[C@@H](Cc1ccncc1)C(=O)N[C@@H](CCCCNC(=O)COCCOCCNC(=O)COCCOCCNC(=O)CC[C@H](NC(=O)CCCCCCCCCCCCCCCCCCC(=O)O)C(=O)O)C(=O)N[C@@H](CC(C)C)C(=O)N[C@@H](CCC(=O)O)C(=O)NCC(=O)NCC(=O)N1CCC[C@H]1C(=O)N[C@@H](CO)C(=O)N[C@@H](CO)C(=O)NCC(=O)N[C@@H](C)C(=O)N1CCC[C@H]1C(=O)N1CCC[C@H]1C(=O)N1CCC[C@H]1C(=O)N[C@@H](CO)C(N)=O)C(C)C)[C@@H](C)CC` [Example 119] (H-Y[Aib]EGT[αMePhe(2-F)]ISDYSILLDKIHQ[Aib]DFVE[4Pal]K([AEEA-AEEA-γGlu-C20 diacid])LEGGPSSGAPPPS-NH2), for which the Ki on human GcgR is 68.8 nM; at human GLP-1R it was 723 nM; on human GIPR it was 0.129 nM.
The like results for `CC[C@H](C)[C@H](NC(=O)[C@H](CO)NC(=O)[C@H](Cc1ccc(O)cc1)NC(=O)[C@H](CC(=O)O)NC(=O)[C@H](CO)NC(=O)[C@@H](NC(=O)[C@](C)(Cc1ccccc1F)NC(=O)[C@@H](NC(=O)CNC(=O)[C@H](CCC(=O)O)NC(=O)C(C)(C)NC(=O)[C@@H](N)Cc1ccc(O)cc1)[C@@H](C)O)[C@@H](C)CC)C(=O)N[C@@H](CC(C)C)C(=O)N[C@@H](CC(C)C)C(=O)N[C@@H](CC(=O)O)C(=O)N[C@@H](CCCCN)C(=O)N[C@H](C(=O)N[C@@H](Cc1c[nH]cn1)C(=O)N[C@@H](CCC(N)=O)C(=O)NC(C)(C)C(=O)N[C@@H](CC(=O)O)C(=O)N[C@@H](Cc1ccccc1)C(=O)N[C@H](C(=O)N[C@@H](CCC(=O)O)C(=O)N[C@@H](Cc1ccncc1)C(=O)N[C@@H](CCCCNC(=O)COCCOCCNC(=O)COCCOCCNC(=O)CC[C@H](NC(=O)CCCCCCCCCCCCCCCCCCC(=O)O)C(=O)O)C(=O)N[C@@H](CC(C)C)C(=O)N[C@@H](CCC(=O)O)C(=O)N[C@@H](C)C(=O)NCC(=O)N1CCC[C@H]1C(=O)N[C@@H](CO)C(=O)N[C@@H](CO)C(=O)NCC(=O)N[C@@H](C)C(=O)N1CCC[C@H]1C(=O)N1CCC[C@H]1C(=O)N1CCC[C@H]1C(=O)N[C@@H](CO)C(N)=O)C(C)C)[C@@H](C)CC` [Example 120] (H-Y[Aib]EGT[αMePhe(2-F)]ISDYSILLDKIHQ[Aib]DFVE[4Pal]K([AEEA-AEEA-γGlu-C20 diacid])LEAGPSSGAPPPS-NH2) were, in that order, 575 nM, greater than 912 nM and 0.171 nM.
For the molecule `CC[C@H](C)[C@H](NC(=O)[C@H](CO)NC(=O)[C@H](Cc1ccc(O)cc1)NC(=O)[C@H](CC(=O)O)NC(=O)[C@H](CO)NC(=O)[C@@H](NC(=O)[C@](C)(Cc1ccccc1F)NC(=O)[C@@H](NC(=O)CNC(=O)[C@H](CCC(=O)O)NC(=O)C(C)(C)NC(=O)[C@@H](N)Cc1ccc(O)cc1)[C@@H](C)O)[C@@H](C)CC)C(=O)N[C@@H](CC(C)C)C(=O)N[C@@H](CC(C)C)C(=O)N[C@@H](CC(=O)O)C(=O)N[C@@H](CCCCN)C(=O)N[C@H](C(=O)N[C@@H](Cc1c[nH]cn1)C(=O)N[C@@H](CCC(N)=O)C(=O)NC(C)(C)C(=O)N[C@@H](CC(=O)O)C(=O)N[C@@H](Cc1ccccc1)C(=O)N[C@H](C(=O)N[C@@H](CCC(=O)O)C(=O)N[C@@H](Cc1ccncc1)C(=O)N[C@@H](CCCCNC(=O)COCCOCCNC(=O)COCCOCCNC(=O)CC[C@H](NC(=O)CCCCCCCCCCCCCCCCCCC(=O)O)C(=O)O)C(=O)N[C@@H](CC(C)C)C(=O)N[C@@H](CCC(=O)O)C(=O)N[C@@H](CCC(N)=O)C(=O)NCC(=O)N1CCC[C@H]1C(=O)N[C@@H](CO)C(=O)N[C@@H](CO)C(=O)NCC(=O)N[C@@H](C)C(=O)N1CCC[C@H]1C(=O)N1CCC[C@H]1C(=O)N1CCC[C@H]1C(=O)N[C@@H](CO)C(N)=O)C(C)C)[C@@H](C)CC` [Example 121] (H-Y[Aib]EGT[αMePhe(2-F)]ISDYSILLDKIHQ[Aib]DFVE[4Pal]K([AEEA-AEEA-γGlu-C20 diacid])LEQGPSSGAPPPS-NH2), the inhibition constant (Ki) was 94.9 nM at human GcgR, greater than 912 nM at human GLP-1R and 0.103 nM on human GIPR.
In the same order, the values of `CC[C@H](C)[C@H](NC(=O)[C@H](CCCN)NC(=O)[C@H](CC(=O)O)NC(=O)[C@H](CC(C)C)NC(=O)[C@](C)(CC(C)C)NC(=O)[C@@H](NC(=O)[C@H](CO)NC(=O)[C@H](Cc1ccc(O)cc1)NC(=O)[C@H](CC(=O)O)NC(=O)[C@H](CO)NC(=O)[C@@H](NC(=O)[C@H](Cc1ccccc1)NC(=O)[C@@H](NC(=O)CNC(=O)[C@H](CCC(=O)O)NC(=O)C(C)(C)NC(=O)[C@@H](N)Cc1ccc(O)cc1)[C@@H](C)O)[C@@H](C)CC)[C@@H](C)CC)C(=O)N[C@@H](Cc1c[nH]cn1)C(=O)N[C@@H](CCC(N)=O)C(=O)NC(C)(C)C(=O)N[C@@H](CCC(=O)O)C(=O)N[C@@H](Cc1ccccc1)C(=O)N[C@H](C(=O)N[C@@H](CCC(=O)O)C(=O)N[C@@H](Cc1ccncc1)C(=O)N[C@@H](CCCCNC(=O)COCCOCCNC(=O)COCCOCCNC(=O)CC[C@H](NC(=O)CCCCCCCCCCCCCCCCCCC(=O)O)C(=O)O)C(=O)N[C@@H](CC(C)C)C(=O)N[C@@H](CCC(=O)O)C(=O)N[C@@H](C)C(=O)NCC(=O)N1CCC[C@H]1C(=O)N[C@@H](CO)C(=O)N[C@@H](CO)C(=O)NCC(=O)N[C@@H](C)C(=O)N1CCC[C@H]1C(=O)N1CCC[C@H]1C(=O)N1CCC[C@H]1C(=O)N[C@@H](CO)C(N)=O)C(C)C` [Example 122] (H-Y[Aib]EGTFISDYSI[αMeL]LD[Orn]IHQ[Aib]EFVE[4Pal]K([AEEA-AEEA-γGlu-C20 diacid])LEAGPSSGAPPPS-NH2) are 957 nM, greater than 913 nM and 0.0311 nM.

Source of the values: patent US12723063B2, “GIPR-agonist compounds” (Eli Lilly and Company, priority 2019, dated 2026).
